Results: patent publication US8563738B2, “Ligands for copper-catalyzed azide-alkyne cycloaddition reactions” (The Scripps Research Institute, priority 2007, dated 2013)

Experiments:
[1] = Second-order rate constants of CuAAC reaction by LC-MS of quenched aliquots; details: for relative catalytic rate (second-order specific activity): ligand:Cu 2:1, 0.1 mM Cu, 1-2 mM substrates, 4:1 DMSO:aqueous buffer, sodium ascorbate; for change in rate with pH: pH of the aqueous component raised from 7 to 8
Description: The relative effectiveness of Cu-ligand complexes was evaluated on the reaction between phenylacetylene and benzyl azide in 4:1 DMSO:aqueous buffer containing sodium ascorbate as reducing agent, which has served as the standard reaction in previous mechanistic studies (Rodionov, V. O.; et al. Angew. Chem. Int. Ed. 2005, 44, 2210-2215). Ligand:Cu ratios are used herein to describe the amounts of each component added, and designate mixtures of ligands and copper ions according to those ratios for convenience. However, it must be emphasized that the active catalysts are not necessarily composed of those same ratios of ligand and metal as are placed in the reaction vessel. The equilibria that govern the composition of these catalysts are discussed below, and their study will be the subject of a separate publication.
Absolute rates were determined under relatively dilute conditions (1-2 mM in substrates), which were required to slow the reactions enough so that aliquots could be reliably taken over a substantial fraction of the completion curve. Each aliquot was immediately quenched and the amount of product formed monitored by quantitative LC-MS against an internal standard. In this way, the clean conversion to triazole was verified in each case, information that is not available by following the disappearance of azide or alkyne by infrared spectroscopy. Plots of product concentrations vs. time fitted very well to second-order kinetics over at least 70% of the reaction (FIG. 2A). […] For this reason, comparisons were made between second-order specific activities (rate constants determined at a standard Cu concentration of 0.1 mM) for catalysts composed of 2:1 mixtures of ligands and Cu(I), in the presence of excess ascorbate relative to Cu.
Reagent stock solutions were freshly prepared before use. In a typical experiment, reactions were set up in the first column of a deep-well polypropylene microtiter plate (2.5 mL well volume). 100 μL of 30% H2O2 and 100 μL of ethanol were dispensed into all other wells.
The reactions were started by the addition of the final component (typically CuSO4 solution). Aliquots of 100 μL were taken at 1-5 minute intervals from the reaction wells with a multichannel pipetman, and transferred to the subsequent columns of wells for quenching. After the desired number of aliquots have been quenched in this fashion, the contents of the plate were transferred to a standard polystyrene 96-well plate for analysis.
LC-MS analysis was performed on an Agilent 1100 (G1946D) instrument, equipped with a 35 mm Agilent ZORBAX® 3.5μ or 1.8μ SB-C18 column. The elution solvent for the detection of 1-benzyl-4-phenyl-1,2,3-triazole was 55:45 H2O:CH3CN, with 0.5% TFA. Analysis of the other triazole products required a solvent gradient (typically from 50:50 to 25:75 H2O:CH3CN, 0.5% TFA over the course of 4-5 minutes). Detection was performed in single ion mode (SIM), which typically allowed for quantitative triazole detection down to 0.1 μM. 1-benzyl-4-phenyl-1,2,3-triazole-d7 was used as internal reference for all experiments.
Equations (2) and (3) were used to find the value of k (kobs) that gives the best fit curve to the experimental data of [P] vs. time.
FIG. 2 summarizes the rate data. Note that the rate constants obtained here are really specific activities at 0.10 mM Cu catalyst concentration. Very similar results were obtained at pH 8 in the presence of 180 mM vs. 10 mM HEPES buffer.
FIG. 2B. Conditions: 1 mM BnN3, 2 mM PhCCH, 0.1 mM CuSO4, 0.2 mM ligand, 4:1 DMSO:HEPES (180 mM), 25 mM NaAsc; pH verified with meter after ascorbate addition. The dots mark observed data points; the solid line is the best second-order fit; an initial “burst” of catalytic activity was not counted in the reported rate constants. Experimental error in rate constants upon repeat measurement is <15% (usually ca. 10%), except where noted.
FIG. 2C. […]

Solubility of ligands = details: for solubility in common organic solvents: including DMSO
[2] = Ligand screening by reaction calorimetry (peak reaction power); details: high reactant concentrations, 1% Cu, 4:1 DMSO:aqueous, 65° C.
From the text: Reaction calorimetry was used to evaluate the relative merits of various ligands under practical conditions of organic synthesis, e.g., involving high concentrations of azide and alkyne reagents and low loadings of catalyst. After correction for instrumental heat transfer parameters, thermograms provide a direct real-time measure of reaction rate (power output); integration gives the overall time-vs.-completion curve. […] All such measurements were made in the same 4:1 DMSO:aqueous solvent as before, but at 65° C. rather than room temperature, in order to keep the product triazole in solution at the higher concentrations used.
Calorimetry was performed in an Omnical INSIGHT® 10-channel reaction calorimeter using 40 mL glass vials. In a typical run all the reaction components but one were introduced into the vials inside an inert atmosphere glovebox, and vials were sealed with septum caps. The last reaction component to be added was placed in a Hamilton gastight syringe. The vials and syringes were then allowed to equilibrate inside the preheated instrument (65° C.) for 30 minutes. The reaction was started in all vials by depressing all of the syringes simultaneously. Two vials out of ten were charged only with solvent to obtain readings allowing for compensation for the heat of mixing. The thermograms registered in these two channels upon addition of the last component were used to construct the baseline for the other 8 channels.
Since heat is not transferred to the instrument sensor instantaneously, the thermogram registered by the instrument is dependent on the characteristics of the instrument and reaction vessel. Correction for these extraneous factors must be applied to the recorded thermograms to obtain instrument-independent data (Rosner, T.; et al. J. Am. Chem. Soc. 2001, 123, 1848-1855; Liu, J.-S.; et al. Thermochimica Acta 1994, 236, 113-122). The appropriate dynamic correction function is built into the instrument operating software. Use of vendor supplied software produces the same result as manual correction.
By the same token, catalysts such as Cu.1 that give observable, but not very strong, calorimetry signals cannot be fully analyzed by converting thermograms to completion curves, because a significant amount of the total energy output is lost below the detection threshold of the instrument. TBTA (1) falls into this category, classified as “moderate” ligands. […] However, peak power values (i.e., maximum reaction rate) provided a reproducible relative measure of relative catalytic efficiency.
Ligands were screened under the following conditions: 250 mM benzyl azide, 454 mM phenylacetylene, 2 mM CuSO4, 4 mM ligand, 25 mM sodium ascorbate. Phenylacetylene was the last component added. Initial screening was performed with at least two independent trials for each ligand. Candidates showing promising activity were then examined with at least three independent trials to obtain reliable estimations of experimental error.

[3] = Second-order rate constants of CuAAC reaction by LC-MS of quenched aliquots; details: 4:1 DMSO:buffer, Tris buffer over a standard range of concentrations

| SMILES | relative catalytic rate (second-order specific activity) [1] | relative catalytic activity by calorimetry [2] | further results |
| --- | --- | --- | --- |
| O=C([O-])Cn1c(CN(Cc2nc3ccccc3n2CC(=O)[O-])Cc2nc3ccccc3n2CC(=O)[O-])nc2ccccc21.[K+].[K+].[K+] [(BimC1A)3] | one of the least effective catalysts in the series | – | water solubility (Solubility of ligands; water): water-soluble |
| CCOC(=O)Cn1c(CN(Cc2nc3ccccc3n2CC(=O)OCC)Cc2nc3ccccc3n2CC(=O)OCC)nc2ccccc21 [(BimC1E)3, Triethyl 2,2′,2″-(2,2′,2″-nitrilotris(methylene)tris(1H-benzimidazole-2,1-diyl)) triethanoate] | performing as well as the parent structure (BimH)3 | – | – |
| CC(C)(C)OC(=O)Cn1c(CN(Cc2nc3ccccc3n2CC(=O)OC(C)(C)C)Cc2nc3ccccc3n2CC(=O)OC(C)(C)C)nc2ccccc21 [(BimC1E′)3] | performing as well as the parent structure (BimH)3 | – | – |
| Cn1c(CN(Cc2nc3ccccc3n2C)Cc2nc3ccccc3n2C)nc2ccccc21 [(BimC1H)3] | performing as well as the parent structure (BimH)3 | – | solubility in common organic solvents (Solubility of ligands): unusually low solubility |
| O=C([O-])CCCn1c(CN(Cc2nc3ccccc3n2CCCC(=O)[O-])Cc2nc3ccccc3n2CCCC(=O)[O-])nc2ccccc21.[K+].[K+].[K+] [(BimC3A)3] | noticeably better catalyst performance | best in the class | – |
| O=C([O-])CCCCn1c(CN(Cc2nc3ccccc3n2CCCCC(=O)[O-])Cc2nc3ccccc3n2CCCCC(=O)[O-])nc2ccccc21.[K+].[K+].[K+] [(BimC4A)3, Potassium 5,5′,5″-(2,2′,2″-nitrilotris(methylene)tris(1H-benzimidazole-2,1-diyl))tripentanoate] | noticeably better catalyst performance | best in the class | relative catalytic rate (second-order specific activity) ([1]; listed as (BimC4A)): strong rate acceleration through a wide pH range |
| CCOC(=O)CCCCn1c(CN(Cc2nc3ccccc3n2CCCCC(=O)OCC)Cc2nc3ccccc3n2CCCCC(=O)OCC)nc2ccccc21 [(BimC4E)3, Triethyl 5,5′,5″-(2,2′,2″-nitrilotris(methylene)tris(1H-benzimidazole-2,1-diyl))tripentanoate] | just as active as its hydrolyzed (carboxylate) analog | – | – |
| O=C([O-])CCCCCn1c(CN(Cc2nc3ccccc3n2CCCCCC(=O)[O-])Cc2nc3ccccc3n2CCCCCC(=O)[O-])nc2ccccc21.[K+].[K+].[K+] [(BimC5A)3] | noticeably better catalyst performance | best in the class | – |
| c1ccc2[nH]c(CN(Cc3nc4ccccc4[nH]3)Cc3nc4ccccc4[nH]3)nc2c1 [(BimH)3, Tris-(2-benzimidazolylmethyl)amine, reference compound] | – | – | change in rate with pH [1]: more sensitive; effect of Tris buffer on rate [3]: slowed significantly |
| O=S(=O)(O)c1ccc2[nH]c(CN(Cc3nc4cc(S(=O)(=O)O)ccc4[nH]3)Cc3nc4cc(S(=O)(=O)O)ccc4[nH]3)nc2c1 [(BimH/S)3, reference compound] | strong rate acceleration through a wide pH range | – | – |
| c1ccc2[nH]c(CN(Cc3nc4ccccc4s3)Cc3nc4ccccc4s3)nc2c1 [(Bth)2(BimH), N-((1H-benzimidazol-2-yl)methyl)-1-(benzothiazol-2-yl)-N-(benzothiazol-2-ylmethyl)methanamine] | best ligand in the series | largely inactive | effect of HEPES buffer on rate ([1]; 180 mM HEPES): faster turnover; change in rate with pH [1]: very little change in rate |
| c1ccc2sc(CN(Cc3nc4ccccc4s3)Cc3nc4ccccc4s3)nc2c1 [(Bth)3, Tris-(2-benzothiazolylmethyl)amine] | – | largely inactive | change in rate with pH [1]: more sensitive; solubility in common organic solvents (Solubility of ligands): unusually low solubility |
| c1ccc2[nH]c(CN(Cc3nc4ccccc4[nH]3)Cc3nc4ccccc4s3)nc2c1 [(Bth)(BimH)2, N,N-bis((1H-benzimidazol-2-yl)methyl)-1-(benzothiazol-2-yl)methanamine] | – | largely inactive | – |
| c1ccc(CN(Cc2ccccn2)Cc2ccccn2)nc1 [(Py)3, tris(pyridylmethyl)amine, reference compound] | slower than those observed for the “ligand-free” case | one of the best ligands in calorimetry screening | – |
| c1ccc2[nH]c(CNCc3nc4ccccc4[nH]3)nc2c1 [H(BimH)2, Bis-(2-benzimidazolylmethyl)amine, reference compound] | slower than those observed for the “ligand-free” case | – | – |
| Cc1cc(C)c(-n2ccn(-c3c(C)cc(C)cc3C)[c]2=[Cu][Cl])c(C)c1 [Ligand S1, reference compound] | – | no detectable exothermic heat flow | – |
| Cn1ccn(-c2cccc(-n3ccn(C)[c]3=[Cu][Cl])n2)[c]1=[Cu][Cl] [Ligand S3, reference compound] | – | in the range of TBTA (1) | – |
